Like-named read-outs stand apart in the source and are kept apart here.
What was measured:
[1] = biological target: rat orexin 1 receptor (Rattus norvegicus, UniProt P56718); assay: Rat orexin 1 receptor radioligand binding (competitive, [3H]-SB674042, HEK293 cell preparations)
[2] = biological target: human orexin 2 receptor (Homo sapiens (Human), UniProt O43614); assay: Human orexin 2 receptor radioligand binding (competitive, [3H]-EMPA, HEK293 cell preparations)
[3] = rat orexin 1 receptor, [3H]-SB674042 competition binding, read-out: rOX1 Ki (nm)
[4] = human orexin 2 receptor, [3H]-EMPA competition binding, read-out: hOX2 Ki (nm)

Sequence of human orexin 2 receptor (O43614 whole entry): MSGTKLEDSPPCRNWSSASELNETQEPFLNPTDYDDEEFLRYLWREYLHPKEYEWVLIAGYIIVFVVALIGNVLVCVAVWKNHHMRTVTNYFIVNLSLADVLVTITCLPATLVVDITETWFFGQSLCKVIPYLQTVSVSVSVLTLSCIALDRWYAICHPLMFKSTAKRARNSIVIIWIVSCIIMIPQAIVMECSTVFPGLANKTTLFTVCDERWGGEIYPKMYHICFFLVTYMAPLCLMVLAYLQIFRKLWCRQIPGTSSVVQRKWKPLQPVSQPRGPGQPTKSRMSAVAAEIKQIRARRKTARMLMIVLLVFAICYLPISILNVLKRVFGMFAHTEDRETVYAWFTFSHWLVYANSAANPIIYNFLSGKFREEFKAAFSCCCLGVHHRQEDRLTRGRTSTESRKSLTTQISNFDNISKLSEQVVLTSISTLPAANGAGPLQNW

With O=C(c1cccc(F)c1-c1ncccn1)N1C2CCC1C(COc1ccccn1)C2 (racemic) [Example 52, (±)-(3-fluoro-2-(pyrimidin-2-yl)phenyl)(2-((pyridin-2-yloxy)methyl)-7-azabicyclo[2.2.1]heptan-7-yl)methanone] the Ki [1, 3] was 0.35 µM and the Ki ([2]; hOX2 Ki (nm)) was 2.3 µM.
Cc1ccc(-n2nccn2)c(C(=O)N2C3CCC2C(COc2cccnn2)C3)n1 (racemic) [Example 53, (±)-(6-methyl-3-(2H-1,2,3-triazol-2-yl)pyridin-2-yl)(2-((pyridazin-3-yloxy)methyl)-7-azabicyclo[2.2.1]heptan-7-yl)methanone] was tested, and the Ki [1, 3] was 2.2 µM and the Ki ([2]; hOX2 Ki (nm)) was over 10 µM.
Cc1ccc(-n2nccn2)c(C(=O)N2C3CCC2C(COc2cccnc2C)C3)n1 (racemic) [Example 54, (±)-(6-methyl-3-(2H-1,2,3-triazol-2-yl)pyridin-2-yl)(2-(((2-methylpyridin-3-yl)oxy)methyl)-7-azabicyclo[2.2.1]heptan-7-yl)methanone] was tested, and the Ki ([1]; rOX1 Ki (nm)) was 3.5 µM and the Ki [2, 4] was 2.2 µM.
In the case of Cc1ccc(-n2nccn2)c(C(=O)N2C3CCC2C(COc2ccnn2C)C3)n1 (racemic) [Example 56, (±)-(2-(((1-methyl-1H-pyrazol-5-yl)oxy)methyl)-7-azabicyclo[2.2.1]heptan-7-yl)(6-methyl-3-(2H-1,2,3-triazol-2-yl)pyridin-2-yl)methanone], the Ki [1, 3] is reported as over 10 µM and the Ki ([2]; hOX2 Ki (nm)) is reported as over 10 µM.
Molecule Cc1ccc(-n2nccn2)c(C(=O)N2C3CCC2C(COc2ccncc2)C3)n1 (racemic) [Example 57, (±)-(6-methyl-3-(2H-1,2,3-triazol-2-yl)pyridin-2-yl)(2-((pyridin-4-yloxy)methyl)-7-azabicyclo[2.2.1]heptan-7-yl)methanone] has a Ki [1, 3] of 1 µM and a Ki [2, 4] of 7.3 µM.
Cc1ccc(-n2nccn2)c(C(=O)N2C3CCC2C(COc2ncccn2)C3)n1 (racemic) [Example 59, (±)-(6-methyl-3-(2H-1,2,3-triazol-2-yl)pyridin-2-yl)(2-((pyrimidin-2-yloxy)methyl)-7-azabicyclo[2.2.1]heptan-7-yl)methanone] was tested, and the Ki [1, 3] was 2.6 µM and the Ki ([2]; hOX2 Ki (nm)) was 4.9 µM.
In the case of Cc1ccc(-n2nccn2)c(C(=O)N2C3CCC2C(COc2cnccn2)C3)n1 (racemic) [Example 60, (±)-(6-methyl-3-(2H-1,2,3-triazol-2-yl)pyridin-2-yl)(2-((pyrazin-2-yloxy)methyl)-7-azabicyclo[2.2.1]heptan-7-yl)methanone], the Ki [1, 3] is reported as 7.8 µM and the Ki ([2]; hOX2 Ki (nm)) is reported as over 10 µM.
Molecule Cc1ccc(-n2nccn2)c(C(=O)N2C3CCC2C(COc2ccncn2)C3)n1 (racemic) [Example 61, (±)-(6-methyl-3-(2H-1,2,3-triazol-2-yl)pyridin-2-yl)(2-((pyrimidin-4-yloxy)methyl)-7-azabicyclo[2.2.1]heptan-7-yl)methanone] has a Ki ([1]; rOX1 Ki (nm)) of 2.8 µM and a Ki ([2]; hOX2 Ki (nm)) of over 10 µM.
Cc1ccc(-c2ncccc2C)c(C(=O)N2C3CCC2C(COc2ccc(F)cn2)C3)n1 (racemic) [Example 65, (±)-(3,6′-dimethyl-[2,3′-bipyridin]-2′-yl)(2-(((5-fluoropyridin-2-yl)oxy)methyl)-7-azabicyclo[2.2.1]heptan-7-yl)methanone] was tested, and the Ki ([1]; rOX1 Ki (nm)) was 1.44 µM and the Ki [2, 4] was 6.2 µM.
With Cc1cnc(C(=O)N2C3CCC2C(COc2ccccn2)C3)c(-n2nccn2)c1 (racemic) [Example 71, (±)-(5-methyl-3-(2H-1,2,3-triazol-2-yl)pyridin-2-yl)(2-((pyridin-2-yloxy)methyl)-7-azabicyclo[2.2.1]heptan-7-yl)methanone] the Ki [1, 3] was 1.2 µM and the Ki [2, 4] was 3.7 µM.
With Cc1ccc(N(C)C)c(C(=O)N2C3CCC2C(COc2ccccn2)C3)n1 (racemic) [Example 73, (±)-(3-(dimethylamino)-6-methylpyridin-2-yl)(2-((pyridin-2-yloxy)methyl)-7-azabicyclo[2.2.1]heptan-7-yl)methanone] the Ki [1, 3] was 0.278 µM and the Ki [2, 4] was 7.9 µM.
Work on O=C(c1nc2ccccc2cc1-n1nccn1)N1C2CCC1C(COc1ccccn1)C2 (racemic) [Example 74, (±)-(3-(2H-1,2,3-triazol-2-yl)quinolin-2-yl)(2-((pyridin-2-yloxy)methyl)-7-azabicyclo[2.2.1]heptan-7-yl)methanone] yielded a Ki ([1]; rOX1 Ki (nm)) of 0.359 µM and a Ki [2, 4] of 1.7 µM.
